According to patent US12281108B2, “Pyrrolidinone derivatives as formyl peptide 2 receptor agonists” (BRISTOL-MYERS SQUIBB COMPANY, priority 2018, dated 2025):

target: T1, human FPR2 receptors (Homo sapiens, UniProt P25090); assay: FPR2 cAMP assay in CHO cells overexpressing human FPR2 (HTRF); assay type: cell-based; conditions: CHO cells overexpressing human FPR2; forskolin 5 μM; inhibition of cAMP production; read-out: hFPR2 cAMP2 EC50
T1 sequence (P25090 1-351): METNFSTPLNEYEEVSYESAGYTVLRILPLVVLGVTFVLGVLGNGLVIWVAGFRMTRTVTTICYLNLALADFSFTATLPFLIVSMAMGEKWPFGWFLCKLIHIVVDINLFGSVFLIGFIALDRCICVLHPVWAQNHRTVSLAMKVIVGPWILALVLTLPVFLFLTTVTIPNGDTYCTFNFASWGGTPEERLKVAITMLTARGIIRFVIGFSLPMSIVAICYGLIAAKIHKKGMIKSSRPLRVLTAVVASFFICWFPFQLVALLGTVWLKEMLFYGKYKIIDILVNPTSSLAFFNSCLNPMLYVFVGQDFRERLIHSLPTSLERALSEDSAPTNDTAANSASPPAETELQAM
Source text: N-formyl peptide receptors (FPRs) are a family of chemo attractant receptors that facilitate leukocyte response during inflammation. FPRs belong to the seven-transmembrane G protein-coupled receptor superfamily and are linked to inhibitory G-proteins (Gi). Three family members (FPR1, FPR2 and FPR3) have been identified in humans and are predominantly found in myeloid cells with varied distribution and have also been reported in multiple organs and tissues. After agonist binding, the FPRs activate a multitude of physiological pathways, such as intra cellular signaling transduction, Ca^2+ mobilization and transcription. The family interacts with a diverse set of ligands that includes proteins, polypeptides and fatty acid metabolites which activate both pro-inflammatory and pro-resolution downstream responses. FPR2 and FPR1 Cyclic Adenosine Monophosphate (cAMP) Assays were used to measure the in vitro activity of the compounds disclosed in this application.
FPR2 and FPR1 Cyclic Adenosine Monophosphate (cAMP) Assays. A mixture of forskolin (5 μM final for FPR2 or 10 μM final for FPR1) and IBMX (200 μM final) were added to 384-well Proxiplates (Perkin-Elmer) pre-dotted with test compounds in DMSO (1% final) at final concentrations in the range of 0.020 nM to 100 μM. Chinese Hamster Ovary cells (CHO) overexpressing human FPR1 or human FPR2 receptors were cultured in F-12 (Ham's) medium supplemented with 10% qualified FBS, 250 μg/ml zeocin and 300 μg/ml hygromycin (Life Technologies). Reactions were initiated by adding 2,000 human FPR2 cells per well or 4,000 human FPR1 cells per well in Dulbecco's PBS (with calcium and magnesium) (Life Technologies) supplemented with 0.1% BSA (Perkin-Elmer). The reaction mixtures were incubated for 30 min at room temperature. The level of intracellular cAMP was determined using the HTRF HiRange cAMP assay reagent kit (Cisbio) according to manufacturer's instruction. Solutions of cryptate conjugated anti-cAMP and d2 flurorophore-labelled cAMP were made in a supplied lysis buffer separately. Upon completion of the reaction, the cells were lysed with equal volume of the d2-cAMP solution and anti-cAMP solution. After a 1-h room temperature incubation, time-resolved fluorescence intensity was measured using the Envision (Perkin-Elmer) at 400 nm excitation and dual emission at 590 nm and 665 nm. A calibration curve was constructed with an external cAMP standard at concentrations ranging from 1 μM to 0.1 pM by plotting the fluorescent intensity ratio from 665 nm emission to the intensity from the 590 nm emission against cAMP concentrations. The potency and activity of a compound to inhibit cAMP production was then determined by fitting to a 4-parametric logistic equation from a plot of cAMP level versus compound concentrations.

EC50 [nM] | Compound
10 | COc1cc(F)c([C@@H]2CNC(=O)[C@H]2Nc2cc(-c3ccc(Cl)cc3)on2)c(F)c1 [Example 21, (3S,4R)-3-{[5-(4-chlorophenyl)-1,2-oxazol-3-yl]amino}-4-(2,6-difluoro-4-methoxyphenyl)pyrrolidin-2-one]

same assay, conditions: hFPR2 assay; potency bins; read-out: hFPR2 agonist activity EC50

EC50 [nM] | Compound
150 to 1000 | COc1cc(F)c([C@@H]2CNC(=O)[C@H]2Nc2nnc(-c3ccc(C4CC4)cc3)o2)c(F)c1 [Example 38, (3S,4R)-3-{[5-(4-cyclopropylphenyl)-1,3,4-oxadiazol-2-yl]amino}-4-(2,6-difluoro-4-methoxyphenyl)pyrrolidin-2-one]
40 to 150 | COc1cc(F)c([C@@H]2CNC(=O)[C@H]2Nc2nnc(-c3ccc(Oc4cc(C#N)ccn4)cc3)o2)c(F)c1 [Example 48, 2-[4-(5-{[(3S,4R)-4-(2,6-difluoro-4-methoxyphenyl)-2-oxopyrrolidin-3-yl]amino}-1,3,4-oxadiazol-2-yl)phenoxy]pyridine-4-carbonitrile]
40 to 150 | COc1cc(F)c([C@@H]2CNC(=O)[C@H]2Nc2nnc(-c3ccc(OC(F)(F)F)cc3)o2)c(F)c1 [Example 7, (3S,4R)-4-(2,6-difluoro-4-methoxyphenyl)-3-({5-[4-(trifluoromethoxy)phenyl]-1,3,4-oxadiazol-2-yl}amino)pyrrolidin-2-one]
150 to 1000 | COc1cc(F)c([C@@H]2CNC(=O)[C@H]2Nc2nnc(-c3ccc(C(F)(F)F)nc3)s2)c(F)c1 [Example 33, (3S,4R)-4-(2,6-difluoro-4-methoxyphenyl)-3-({5-[6-(trifluoromethyl)pyridin-3-yl]-1,3,4-thiadiazol-2-yl}amino)pyrrolidin-2-one]
≤ 40 | COc1cc(F)c([C@@H]2CNC(=O)[C@H]2Nc2nnc(-c3ccc(Oc4cccc(F)n4)cc3)o2)c(F)c1 [Example 64, (3S,4R)-4-(2,6-difluoro-4-methoxyphenyl)-3-[(5-{4-[(6-fluoropyridin-2-yl)oxy]phenyl}-1,3,4-oxadiazol-2-yl)amino]pyrrolidin-2-one]
150 to 1000 | COc1cc(F)c([C@@H]2CNC(=O)[C@H]2Nc2nnc(-c3ccc([S+]([O-])C(F)(F)F)cc3)o2)c(F)c1 (stereo partly drawn) [Example 26, (3S,4R)-4-(2,6-difluoro-4-methoxyphenyl)-3-{[5-(4-trifluoromethanesulfinylphenyl)-1,3,4-oxadiazol-2-yl]amino}pyrrolidin-2-one]
150 to 1000 | COc1cc(F)c([C@@H]2CNC(=O)[C@H]2Nc2nnc(-c3ccc(F)c(F)c3)o2)c(F)c1 [Example 5, (3S,4R)-4-(2,6-difluoro-4-methoxyphenyl)-3-{[5-(3,4-difluorophenyl)-1,3,4-oxadiazol-2-yl]amino}pyrrolidin-2-one]
150 to 1000 | COc1cc(F)c([C@@H]2CNC(=O)[C@H]2Nc2nnc(-c3ccc(-n4cccn4)cc3)o2)c(F)c1 [Example 13, (3S,4R)-4-(2,6-difluoro-4-methoxyphenyl)-3-({5-[4-(1H-pyrazol-1-yl)phenyl]-1,3,4-oxadiazol-2-yl}amino)pyrrolidin-2-one]
150 to 1000 | COc1cc(F)c([C@@H]2CNC(=O)[C@H]2Nc2nnc(-c3ccc(Cl)cc3F)o2)c(F)c1 [Example 15, (3S,4R)-3-{[5-(4-chloro-2-fluorophenyl)-1,3,4-oxadiazol-2-yl]amino}-4-(2,6-difluoro-4-methoxyphenyl)pyrrolidin-2-one]
40 to 150 | COc1cc(F)c([C@@H]2CNC(=O)[C@H]2Nc2nnc(C(=O)NCc3ccc(Cl)cc3)o2)c(F)c1 [Example 53, N-[(4-chlorophenyl)methyl]-5-{[(3S,4R)-4-(2,6-difluoro-4-methoxyphenyl)-2-oxopyrrolidin-3-yl]amino}-1,3,4-oxadiazole-2-carboxamide]
≤ 40 | COc1cc(F)c([C@@H]2CNC(=O)[C@H]2Nc2noc3cc(Cl)ccc23)c(F)c1 [Example 50, (3S,4R)-3-[(6-chloro-1,2-benzoxazol-3-yl)amino]-4-(2,6-difluoro-4-methoxyphenyl)pyrrolidin-2-one]
≤ 40 | COc1cc(F)c([C@@H]2CNC(=O)[C@H]2Nc2nnc(-c3ccc(C(F)(F)F)cc3)o2)c(F)c1 [Example 8, (3S,4R)-4-(2,6-difluoro-4-methoxyphenyl)-3-({5-[4-(trifluoromethyl)phenyl]-1,3,4-oxadiazol-2-yl}amino)pyrrolidin-2-one]
150 to 1000 | COc1cc(F)c([C@@H]2CNC(=O)[C@H]2Nc2nnc(-c3ccc(OC(F)F)cc3)o2)c(F)c1 [Example 37, (3S,4R)-4-(2,6-difluoro-4-methoxyphenyl)-3-({5-[4-(difluoromethoxy)phenyl]-1,3,4-oxadiazol-2-yl}amino)pyrrolidin-2-one]
40 to 150 | COc1cc(F)c([C@@H]2CNC(=O)[C@H]2Nc2nnc(-c3ccc(F)cc3)o2)c(F)c1 [Example 12, (3S,4R)-4-(2,6-difluoro-4-methoxyphenyl)-3-{[5-(4-fluorophenyl)-1,3,4-oxadiazol-2-yl]amino}pyrrolidin-2-one]
40 to 150 | COc1cc(F)c([C@@H]2CNC(=O)[C@H]2Nc2nnc(-c3ccc(Oc4ccc(C#N)cc4)cc3)o2)c(F)c1 [Example 57, 4-[4-(5-{[(3S,4R)-4-(2,6-difluoro-4-methoxyphenyl)-2-oxopyrrolidin-3-yl]amino}-1,3,4-oxadiazol-2-yl)phenoxy]benzonitrile]
150 to 1000 | COc1cc(F)c([C@@H]2CNC(=O)[C@H]2Nc2nnc(-c3ccc(C(F)(F)F)cn3)o2)c(F)c1 [Example 14, (3S,4R)-4-(2,6-difluoro-4-methoxyphenyl)-3-({5-[5-(trifluoromethyl)pyridin-2-yl]-1,3,4-oxadiazol-2-yl}amino)pyrrolidin-2-one]
40 to 150 | COc1cc(F)c([C@@H]2CNC(=O)[C@H]2Nc2nnc(-c3ccc(SC(F)(F)F)cc3)s2)c(F)c1 [Example 29, (3S,4R)-4-(2,6-difluoro-4-methoxyphenyl)-3-[(5-{4-[(trifluoromethyl)sulfanyl]phenyl}-1,3,4-thiadiazol-2-yl)amino]pyrrolidin-2-one]
≤ 40 | COc1cc(F)c([C@@H]2CNC(=O)[C@H]2Nc2cc(-c3ccc(OC(F)(F)F)cc3)on2)c(F)c1 [Example 23, (3S,4R)-4-(2,6-difluoro-4-methoxyphenyl)-3-({5-[4-(trifluoromethoxy)phenyl]-1,2-oxazol-3-yl}amino)pyrrolidin-2-one]
150 to 1000 | COc1cc(F)c([C@@H]2CNC(=O)[C@H]2Nc2nnc(-c3ccc(C(C)C)cc3)o2)c(F)c1 [Example 39, (3S,4R)-4-(2,6-difluoro-4-methoxyphenyl)-3-({5-[4-(propan-2-yl)phenyl]-1,3,4-oxadiazol-2-yl}amino)pyrrolidin-2-one]
40 to 150 | COc1cc(F)c([C@@H]2CNC(=O)[C@H]2Nc2nnc(-c3ccc(Oc4cc(OC)ncn4)cc3)o2)c(F)c1 [Example 62, (3S,4R)-4-(2,6-difluoro-4-methoxyphenyl)-3-[(5-{4-[(6-methoxypyrimidin-4-yl)oxy]phenyl}-1,3,4-oxadiazol-2-yl)amino]pyrrolidin-2-one]
150 to 1000 | COc1cc(F)c([C@@H]2CNC(=O)[C@H]2Nc2nnc(-c3ccc(C)cc3)o2)c(F)c1 [Example 11, (3S,4R)-4-(2,6-difluoro-4-methoxyphenyl)-3-{[5-(4-methylphenyl)-1,3,4-oxadiazol-2-yl]amino}pyrrolidin-2-one]
40 to 150 | COc1cc(F)c([C@@H]2CNC(=O)[C@H]2Nc2nnc(C3CC3c3ccccc3OC)o2)c(F)c1 (stereo partly drawn) [Example 44, (3S,4R)-4-(2,6-difluoro-4-methoxyphenyl)-3-({5-[2-(2-methoxyphenyl)cyclopropyl]-1,3,4-oxadiazol-2-yl}amino)pyrrolidin-2-one]
≤ 40 | COc1cc(F)c([C@@H]2CNC(=O)[C@H]2Nc2nnc(-c3ccc(Cl)cc3)s2)c(F)c1 [Example 2, (3S,4R)-3-{[5-(4-chlorophenyl)-1,3,4-thiadiazol-2-yl]amino}-4-(2,6-difluoro-4-methoxyphenyl)pyrrolidin-2-one]
